9 compounds from patent US9302999B2, “Substituted triazoles as herbicides” (E. I. DU PONT DE NEMOURS AND COMPANY, priority 2012, dated 2016) can be followed below.

Holding throughout (format): in vivo
In assay [1] the test system is crabgrass, large (large crabgrass, Digitaria sanguinalis). The assay is described as follows: Test F pre-/postemergence: crabgrass, large. The conditions noted are these: Preemergence. An excerpt:
(§1) Seeds of plant species selected from corn (Zea mays), soybean (Glycine max), velvetleaf (Abutilon theophrasti), lambsquarters (Chenopodium album), poinsettia, wild (wild poinsettia, Euphorbia heterophylla), pigweed, palmer (palmer pigweed, Amaranthus palmeri), waterhemp (common waterhemp, Amaranthus rudis), surinam grass (Brachiaria decumbens), crabgrass, Brazil (Brazilian crabgrass, Digitaria horizontalis), panicum, fall (fall panicum Panicum dichotomiflorum), crabgrass, large (large crabgrass, Digitaria sanguinalis), foxtail, giant (giant foxtail, Setaria faberii), foxtail, green (green foxtail Setaria viridis), goosegrass (Eleusine indica), ragweed (common ragweed, Ambrosia elatior), barnyardgrass (Echinochloa crus-galli), sandbur (southern sandbur, Cenchrus echinatus), arrowleaf sida (Sida rhombifolia), ryegrass, Italian (Italian ryegrass, Lolium multiflorum), dayflower, VA (Virginia (VA) dayflower, Commelina virginica), field bindweed (Convolvulus arvensis), cocklebur (common cocklebur, Xanthium strumarium), morningglory (Ipomoea coccinea), nightshade (eastern black nightshade, Solanum ptycanthum), kochia (Kochia scoparia), nutsedge, yellow (yellow nutsedge, Cyperus esculentus), johnsongrass (Sorghum halepense), smartweed (ladysthumb smartweed, Polygonum persicaria), and beggarticks (hairy beggarticks, Bidens pilosa), were planted into a silt loam soil and treated preemergence with test chemicals formulated in a non-phytotoxic solvent mixture which included a surfactant. At the same time, plants selected from these crop and weed species and also pigweed (Amaranthus retroflexus), waterhemp_RES1 (ALS/Triazine resistant common waterhemp, Amaranthus rudis) and waterhemp_RES2 (ALS/HPPD resistant common waterhemp, Amaranthus rudis) were planted in pots containing a planting medium comprising spaghnum peat moss, vermiculite, wetting agent and starter nutrients treated with postemergence applications of some of the test chemicals formulated in the same manner. Plants ranged in height from 2 to 18 cm for postemergence treatments (1- to 4-leaf stage).
(§2) Treated plants and controls were maintained in a greenhouse for 14 to 21 days, after which time all species were compared to controls and visually evaluated. Plant response ratings, summarized in Table E, are based on a scale of 0 to 100 where 0 is no effect and 100 is complete control. A dash (-) response means no test result.

The subject of the next assay is kochia (Kochia scoparia). The assay is described as follows: Test F pre-/postemergence: kochia. To be noted: Preemergence.
From the text: as §1, §2

Assay [2] deals with ragweed (common ragweed, Ambrosia elation). The assay is described as follows: Test E pre-/postemergence: ragweed. The conditions noted are these: Preemergence, scale 0 to 100.
From the text: Seeds of plant species selected from corn (Zea mays), soybean (Glycine max), velvetleaf (Abutilon theophrasti), lambsquarters (Chenopodium album), poinsettia, wild (wild poinsettia, Euphorbia heterophylla), pigweed, palmer (palmer pigweed, Amaranthus palmeri), waterhemp (common waterhemp, Amaranthus rudis), smartweed (ladysthumb smartweed, Polygonum persicaria), surinam grass (Brachiaria decumbens), crabgrass, large (large crabgrass, Digitaria sanguinalis), crabgrass, Brazil (Brazilian crabgrass, Digitaria horizontalis), panicum, fall (fall panicum, Panicum dichotomiflorum), foxtail, giant (giant foxtail, Setaria faberii), foxtail, green (green foxtail, Setaria viridis), goosegrass (Eleusine indica), johnsongrass (Sorghum halepense), ragweed (common ragweed, Ambrosia elation), barnyardgrass (Echinochloa crus-galli), sandbur (southern sandbur, Cenchrus echinatus), arrowleaf sida (Sida rhombifolia), ryegrass, Italian (Italian ryegrass, Lolium multiflorum), dayflower, (VA) (Virginia dayflower, Commelina virginica), field bindweed (Convolvulus arvensis), cocklebur (common cocklebur, Xanthium strumarium), morningglory (Ipomoea coccinea), nightshade (eastern black nightshade, Solanum ptycanthum), kochia (Kochia scoparia), nutsedge, yellow (yellow nutsedge, Cyperus esculentus) and beggarticks (hairy beggarticks, Bidens pilosa) were planted into a silt loam soil and treated preemergence with test chemicals formulated in a non-phytotoxic solvent mixture which included a surfactant. At the same time, plants selected from these crop and weed species were planted in pots containing a growing medium comprising spaghnum peat moss, vermiculite, wetting agent and starter nutrients and treated with postemergence applications of some of the test chemicals formulated in the same manner. Plants ranged in height from 2 to 18 cm for postemergence treatments (1- to 4-leaf stage).
as §2

The test system of another assay is Oilseed Rape. The assay is described as follows: Test C preemergence: oilseed rape. The conditions noted are these: scale of 0 to 100, 0 is no effect, 100 is complete control. The source says: (§3) Seeds of plant species selected from blackgrass (Alopecurus myosuroides), bromegrass, downy (downy bromegrass, Bromus tectorum), foxtail, green (green foxtail, Setaria viridis), ryegrass, Italian (Italian ryegrass, Lolium multiflorum), winter wheat (Triticum aestivum), wild oat (Avena fatua), galium (catchweed bedstraw, Galium aparine), bermudagrass (Cynodon dactylon), surinam grass (Brachiaria decumbens), cocklebur (common cocklebur, Xanthium strumarium), corn (Zea mays), large crabgrass (Digitaria sanguinalis), woolly cupgrass (Eriochloa villosa), foxtail, giant (giant foxtail, Setaria faberii), goosegrass (Eleusine indica), johnsongrass (Sorghum halepense), kochia (Kochia scoparia), lambsquarters (Chenopodium album), morningglory (Ipomoea coccinea), nightshade (eastern black nightshade, Solanum ptycanthum), nutsedge, yellow (yellow nutsedge, Cyperus esculentus), pigweed (Amaranthus retroflexus), ragweed (common ragweed, Ambrosia elation), soybean (Glycine max), common (oilseed) sunflower (Helianthus annuus), Russian thistle (Salsola kali) and velvetleaf (Abutilon theophrasti) were planted into a blend of loam soil and sand and treated preemergence with test chemicals formulated in a non-phytotoxic solvent mixture which included a surfactant.
(§4) Treated plants and controls were maintained in a greenhouse for 13 to 15 days, after which time all species were compared to controls and visually evaluated. Plant response ratings, summarized in Table C, are based on a scale of 0 to 100 where 0 is no effect and 100 is complete control. A dash (-) response means no test result.

Another assay has as its system Waterhemp. The assay is described as follows: Test C pre-/postemergence: waterhemp.
From the text: as §3
At the same time, plants selected from these crop and weed species and also barley (winter barley, Hordeum vulgare), canarygrass (Phalaris minor), chickweed (common chickweed, Stellaria media) windgrass (Apera spica-venti) and deadnettle (henbit deadnettle, Lamium amplexicaule) were planted in pots containing Redi-Earth® planting medium (Scotts Company, 14111 Scottslawn Road, Marysville, Ohio 43041) comprising spaghnum peat moss, vermiculite, wetting agent and starter nutrients and treated with postemergence applications of test chemicals formulated in the same manner. Plants ranged in height from 2 to 18 cm (1- to 4-leaf stage) for postemergence treatments.
as §4

The mark [3] stands for this setting: 31 g ai/ha, scale 0 to 100 (0 no effect, 100 complete control).
Setting [4] is: 16 g ai/ha, scale 0 to 100 (0 no effect, 100 complete control).
The mark [5] stands for this setting: Preemergence, 250 g ai/ha, scale 0 to 100, 0 no effect, 100 complete control.
[6] abbreviates: Postemergence, 31 g ai/ha, scale 0 to 100 (0 no effect, 100 complete control).

The structures appear in SMILES notation.

Regarding `Fc1ccc(-n2nc(Cc3ccnc(C(F)(F)F)c3)c(OCC(F)(F)F)n2)cc1` [Compound 142], the “Plant response rating, Crabgrass, Large” value in assay [1] (setting [3]) was 20; in assay [1] (62 g ai/ha, scale 0 to 100) it was 98; in assay [1] (125 g ai/ha, scale 0 to 100) it was 100. The “Plant response rating, Kochia” value with kochia (Kochia scoparia) (setting [4]) turned out to be 20; with kochia (Kochia scoparia) (setting [3]) it was 80; in the assay on kochia (Kochia scoparia) (62 g ai/ha, scale 0 to 100) it was 85; in the assay with kochia (Kochia scoparia) (125 g ai/ha, scale 0 to 100) it was 95.

With `Cc1nn(-c2ccc(F)cc2)nc1Cc1ccnc(C(F)(F)F)c1` [Compound 16, 4-[[2-(4-fluorophenyl)-5-methyl-2H-1,2,3-triazol-4-yl]methyl]-2-(trifluoromethyl)pyridine], the “Plant response rating: Ragweed” value in assay [2] (8 g ai/ha) came to 0; in assay [2] (16 g ai/ha), 0; in assay [2] (31 g ai/ha), 0; in assay [2] (62 g ai/ha), 30; in assay [2] (125 g ai/ha), 30.

For `Cc1nn(-c2ccc(C(F)(F)F)c(F)c2)nc1Cc1ccnc(C(F)(F)F)c1` [Compound 162], the “Plant response rating, Crabgrass, Large” value is on record as 0 in assay [1] (8 g ai/ha, scale 0 to 100, 0 no effect, 100 complete control); 0 in assay [1] (setting [4]); 95 in assay [1] (setting [3]); 100 in assay [1] (62 g ai/ha, scale 0 to 100). In addition, the “Plant response rating, Kochia” value is on record as 30 with kochia (Kochia scoparia) (4 g ai/ha, scale 0 to 100, 0 no effect, 100 complete control); 70 in the assay on kochia (Kochia scoparia) (setting [3]); 98 with kochia (Kochia scoparia) (62 g ai/ha, scale 0 to 100). The figures for the “Plant response rating, Oilseed Rape” value in the assay with Oilseed Rape (31 g ai/ha) and in the assay with Oilseed Rape (62 g ai/ha) were 80 and 100, respectively. In the assay with Waterhemp (setting [5]), the “Plant response rating, Waterhemp” value amounted to 100.

Take `CCOc1nn(-c2ccc(Br)cc2)nc1Cc1ccnc(C(F)(F)F)c1` [Compound 189]: in the assay on Oilseed Rape (62 g ai/ha), the “Plant response rating, Oilseed Rape” value is reported as 70.

On to `CCc1nn(-c2ccc(F)cc2)nc1Oc1ccnc(C(F)(F)F)c1` [Compound 166], for which the “Plant response rating, Oilseed Rape” value with Oilseed Rape (62 g ai/ha) came out at 50. Also, the “Plant response rating, Waterhemp” value in the assay on Waterhemp (setting [6]) was 90.

Consider `Cc1nn(-c2ccc(F)cc2)nc1Oc1ccnc(C(F)(F)F)c1` [Compound 129, 4-[[2-(4-fluorophenyl)-5-methyl-2H-1,2,3-triazol-4-yl]oxy]-2-(trifluoromethyl)pyridine], for which the “Plant response rating: Ragweed” value in assay [2] (8 g ai/ha) came to 0; in assay [2] (16 g ai/ha) it was 0; in assay [2] (31 g ai/ha), 5; in assay [2] (62 g ai/ha), 20; in assay [2] (125 g ai/ha), 20.

Take `CCCc1nn(-c2ccc(C(F)(F)F)c(F)c2)nc1Oc1ccnc(C(F)(F)F)c1` [Compound 185]: in the assay with Oilseed Rape (62 g ai/ha), the “Plant response rating, Oilseed Rape” value was found to be 85. Also, the “Plant response rating, Waterhemp” value in the assay on Waterhemp (setting [6]) amounted to 90.

Consider `Cc1nn(-c2ccc(C(F)(F)F)cc2)nc1Cc1ccnc(C(F)(F)F)c1` [Compound 47, 4-[[5-methyl-2-[4-(trifluoromethyl)phenyl]-2H-1,2,3-triazol-4-yl]methyl]-2-(trifluoromethyl)pyridine], for which the “Plant response rating: Ragweed” value was 0 in assay [2] (16 g ai/ha); 0 in assay [2] (31 g ai/ha); 10 in assay [2] (62 g ai/ha); 50 in assay [2] (125 g ai/ha); 90 in assay [2] (250 g ai/ha).

Take `CCCc1nn(-c2ccc(F)cc2)nc1Cc1ccnc(C(F)(F)F)c1` [Compound 153]: the “Plant response rating, Crabgrass, Large” value in assay [1] (setting [4]) was 80; in assay [1] (setting [3]), 95; in assay [1] (62 g ai/ha, scale 0 to 100), 100; in assay [1] (125 g ai/ha, scale 0 to 100), 100; in assay [1] (250 g ai/ha, scale 0 to 100), 100. Further, the “Plant response rating, Kochia” value amounted to 25 in the assay with kochia (Kochia scoparia) (setting [4]); 75 with kochia (Kochia scoparia) (setting [3]); 95 in the assay on kochia (Kochia scoparia) (62 g ai/ha, scale 0 to 100); 100 in the assay on kochia (Kochia scoparia) (125 g ai/ha, scale 0 to 100); 100 with kochia (Kochia scoparia) (250 g ai/ha, scale 0 to 100). The “Plant response rating, Oilseed Rape” value was determined as 90 with Oilseed Rape (31 g ai/ha) and 95 with Oilseed Rape (62 g ai/ha). The “Plant response rating, Waterhemp” value in the assay with Waterhemp (setting [5]) is 100.
